Source: publication PMC5128878 (Scientific Reports, 2016)
Where “and” joins values, the source holds several entries; their conditions need not be identical. Equal entries are not always repeated. Where two headings read alike, the source gives them in different places.

Assays:
α4β2 nAChR = molecular target: T1, α4β2 nAChR (Rattus norvegicus, UniProt P09483+P12390); experiment: cell-based; assay type: cell-based; settings: for IC50: IC50 (95% CI), ACh 10 μM
T1 construct: expressed in transfected cells; host or cells: Xenopus laevis oocytes injected with cRNA
Method: (§1) cDNA clones of rat neuronal nAChR subunits (α3, α4, β2 and β4) and mouse muscle subunits (α1, β1, γ and δ) were from the Salk Institute for Biological Studies (Professor Stephen Heinemann). The human α7 and RIC-3 cDNAs were provided by Professor David Sattelle (University College London).
(§2) Oocytes isolated from mature female Xenopus laevis were supplied by the European Xenopus Resource Centre, University of Portsmouth, UK. Oocytes were treated with collagenase (0.5 mg/ml, Sigma type 1 A) in Ca^2+-free solution (96 mM NaCl, 2 mM KCl, 1 mM MgCl2, 5 mM HEPES, 2.5 mM Na-pyruvate, 100 U/mL penicillin, 0.1 mg/mL streptomycin, pH 7.5) with shaking at 19 °C to defolliculate and remove the connective tissue surrounding the cells. After separation, oocytes were washed 7 times with modified Barth’s solution (96 mM NaCl, 2 mM KCl, 1.8 mM CaCl2, 1 mM MgCl2, 5 mM HEPES, 2.5 mM Na-pyruvate, 0.5 mM theophylline, 50 μg/mL gentamicin, pH 7.5) and kept at 19 °C in the same solution.
(§3) Healthy oocytes were injected with cRNA using a Nano-liter Injector (World Precision Instruments Inc, USA). Mixtures of nAChR subunit cRNAs were injected as follows; for heteromeric rat neuronal receptors a 1:1 ratio of α:β at 200 ng/μL; for mouse embryonic muscle a 1:1:1:1 ratio of α:β:γ:δ at 25 ng/μL; human α7 at 100 ng/μL was mixed with RIC-3 at 30 ng/μL. Each oocyte was injected with 50 nL of RNA solution. Injected oocytes were saved in Barth’s solution at 19 °C for two to three days for expression of the target protein. During this time oocytes were regularly checked to remove unhealthy ones.
(§4) Electrophysiological recordings were taken from nAChR-expressing oocytes by two-electrode voltage clamp using a Geneclamp 500 voltage clamp amplifier (Axon instruments, USA). An oocyte was placed in the perfusion chamber using a plastic Pasteur pipette and the bath was perfused (~5 mL/min) with fresh Frog Ringer solution (96 mM NaCl, 2 mM KCl, 1.8 mM CaCl2 and 5 mM HEPES, pH 7.5). Microelectrodes were pulled from borosilicate glass capillaries (Harvard GC150TF-10) using a programmable micropipette puller (Sutter P97, USA), and they had resistances between 0.5 and 2.5 MΩ when filled with 3 M KCl. The oocyte was voltage-clamped at holding potentials (VH) between −60 and −100 mV. […] Currents were recorded to a PC via a digidata 1200 analog-to-digital converter (Axon Instuments, USA) using WinEDR v3.2.6 Software (Dr John Dempster, University of Strathclyde, UK).
(§5) Graphpad Prism 6 was used for data analysis, graph plotting and curve fitting. All plotted points are the mean ± SEM obtained from 4–20 oocytes.

α4β2(V253F) nAChR = molecular target: T2, α4β2(V253F) nAChR (Rattus norvegicus, UniProt P09483+P12390, V277F); experiment: Two-electrode voltage clamp of ACh currents, α4β2(V253F) nAChRs expressed in Xenopus oocytes; assay type: cell-based; settings: for IC50: α4β2(V253F), ACh 10 μM
T2 construct: expressed in transfected cells; host or cells: Xenopus laevis oocytes injected with cRNA
Method: as §1, §2, §3, §4, §5

α4β4 nAChR = molecular target: T3, α4β4 nAChR (Rattus norvegicus, UniProt P09483+P12392); experiment: cell-based; assay type: cell-based; settings: for IC50: IC50 (95% CI), ACh 10 μM
T3 construct: expressed in transfected cells; host or cells: Xenopus laevis oocytes injected with cRNA
Method: as §2, §3, §4, §5

α3β4 nAChR = molecular target: T4, α3β4 nAChR (Rattus norvegicus, UniProt P04757+P12392); experiment: cell-based; settings: for IC50: IC50 (95% CI)
T4 construct: expressed in transfected cells; host or cells: Xenopus laevis oocytes injected with cRNA
Method: as §2, §3, §4, §5

α3β4(F255V) nAChR = molecular target: T5, α3β4(F255V) nAChR (Rattus norvegicus, UniProt P04757+P12392, F275V); experiment: Two-electrode voltage clamp of ACh currents, α3β4(F255V) nAChRs expressed in Xenopus oocytes; assay type: cell-based; settings: for IC50: α3β4(F255V), ACh 100 μM
T5 construct: expressed in transfected cells; host or cells: Xenopus laevis oocytes injected with cRNA
Method: as §1, §2, §3, §4, §5

α7 nAChR = molecular target: T6, α7 nAChR (Homo sapiens, UniProt P36544); experiment: Two-electrode voltage clamp of ACh currents, α7 nAChRs (with RIC-3) expressed in Xenopus oocytes; assay type: cell-based; settings: for IC50: IC50 (95% CI), ACh 100 μM
T6 construct: expressed in transfected cells; host or cells: Xenopus laevis oocytes injected with cRNA
Method: as §2, §3, §4, §5

α1β1γδ nAChR = molecular target: T7, α1β1γδ nAChR (Mus musculus, UniProt P02716+P04756+P04760+P09690); experiment: cell-based; assay type: cell-based; settings: for IC50: IC50 (95% CI), ACh 10 μM
T7 construct: expressed in transfected cells; host or cells: Xenopus laevis oocytes injected with cRNA
Method: as §2, §3, §4, §5

nAChRs = experiment: Two-electrode voltage clamp of Xenopus oocytes expressing nAChRs, statements across tested subtypes; assay type: cell-based
Method: as §1, §2, §3, §4, §5

[1] = system: nAChRs expressed by PC12 cells; settings: patch-clamp study of PC12 cells ref 14; cited from earlier work
α3β2 nAChR = α3β2 nAChR (Rattus norvegicus, UniProt P04757+P12390); experiment: Two-electrode voltage clamp of ACh currents, α3β2 nAChRs expressed in Xenopus oocytes; settings: for IC50: IC50 (95% CI), ACh 30 μM
Method: as §2, §3, §4, §5

[2] = VH −60 mV, late current (1 min), read-out: IC50 (95% CI), Late
[3] = VH −60 mV, peak current, read-out: IC50 (95% CI), Peak
[4] = VH −80 mV, late current (1 min), read-out: IC50 (95% CI), Late
[5] = VH −80 mV, peak current, read-out: IC50 (95% CI), Peak
[6] = VH −100 mV, late current (1 min), read-out: IC50 (95% CI), Late
[7] = VH −100 mV, peak current, read-out: IC50 (95% CI), Peak
[8] = α3β4, after co-application of 10 μM toxin, ACh 100 μM, −80 mV

α3β2 nAChR, sequence (P04757 26-499): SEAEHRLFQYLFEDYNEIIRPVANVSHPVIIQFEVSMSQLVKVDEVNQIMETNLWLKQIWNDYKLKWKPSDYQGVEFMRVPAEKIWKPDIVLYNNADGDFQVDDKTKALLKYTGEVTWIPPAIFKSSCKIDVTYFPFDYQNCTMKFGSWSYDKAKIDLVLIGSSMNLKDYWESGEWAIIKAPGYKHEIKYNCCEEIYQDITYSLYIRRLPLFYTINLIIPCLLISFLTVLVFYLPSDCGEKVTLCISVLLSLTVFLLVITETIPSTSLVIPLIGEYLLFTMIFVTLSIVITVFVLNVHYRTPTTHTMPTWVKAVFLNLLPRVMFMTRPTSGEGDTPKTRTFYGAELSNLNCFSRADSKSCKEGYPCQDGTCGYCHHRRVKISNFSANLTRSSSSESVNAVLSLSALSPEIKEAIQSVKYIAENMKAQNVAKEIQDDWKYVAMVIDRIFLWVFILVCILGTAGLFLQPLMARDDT
α3β2 nAChR, sequence (P12390 25-500): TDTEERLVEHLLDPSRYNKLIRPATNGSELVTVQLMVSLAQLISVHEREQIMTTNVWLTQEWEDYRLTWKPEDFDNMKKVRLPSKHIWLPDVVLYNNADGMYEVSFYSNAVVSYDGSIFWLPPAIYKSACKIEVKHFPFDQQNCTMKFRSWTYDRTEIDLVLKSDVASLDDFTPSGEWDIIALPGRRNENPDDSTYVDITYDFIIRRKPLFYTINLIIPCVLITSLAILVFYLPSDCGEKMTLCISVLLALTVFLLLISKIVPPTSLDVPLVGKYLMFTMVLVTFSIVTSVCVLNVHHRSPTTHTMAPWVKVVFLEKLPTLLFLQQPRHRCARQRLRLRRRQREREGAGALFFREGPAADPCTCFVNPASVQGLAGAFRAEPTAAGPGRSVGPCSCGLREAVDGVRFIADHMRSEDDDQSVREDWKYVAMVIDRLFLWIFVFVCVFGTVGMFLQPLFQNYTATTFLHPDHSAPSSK
T5 sequence (P04757 26-499): as the sequence (P04757 26-499) above
T5 sequence (P12392 21-495 F275V): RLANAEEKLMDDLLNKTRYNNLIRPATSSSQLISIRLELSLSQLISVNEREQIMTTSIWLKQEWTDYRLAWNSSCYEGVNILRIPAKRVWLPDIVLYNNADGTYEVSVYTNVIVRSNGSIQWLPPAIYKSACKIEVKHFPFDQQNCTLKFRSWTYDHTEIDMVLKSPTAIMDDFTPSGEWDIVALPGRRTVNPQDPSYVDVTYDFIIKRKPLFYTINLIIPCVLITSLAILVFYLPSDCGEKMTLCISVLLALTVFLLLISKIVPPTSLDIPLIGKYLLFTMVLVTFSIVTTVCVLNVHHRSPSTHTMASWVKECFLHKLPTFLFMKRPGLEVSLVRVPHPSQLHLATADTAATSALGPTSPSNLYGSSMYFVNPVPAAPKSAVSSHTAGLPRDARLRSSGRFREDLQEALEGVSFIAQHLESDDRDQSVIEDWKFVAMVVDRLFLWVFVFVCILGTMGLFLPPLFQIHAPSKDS
T4 sequence (P04757 26-499): as the sequence (P04757 26-499) above
T4 sequence (P12392 21-495): as the sequence (P12392 21-495 F275V) above, with V255F counted along it
T7 sequence (P04756 21-457): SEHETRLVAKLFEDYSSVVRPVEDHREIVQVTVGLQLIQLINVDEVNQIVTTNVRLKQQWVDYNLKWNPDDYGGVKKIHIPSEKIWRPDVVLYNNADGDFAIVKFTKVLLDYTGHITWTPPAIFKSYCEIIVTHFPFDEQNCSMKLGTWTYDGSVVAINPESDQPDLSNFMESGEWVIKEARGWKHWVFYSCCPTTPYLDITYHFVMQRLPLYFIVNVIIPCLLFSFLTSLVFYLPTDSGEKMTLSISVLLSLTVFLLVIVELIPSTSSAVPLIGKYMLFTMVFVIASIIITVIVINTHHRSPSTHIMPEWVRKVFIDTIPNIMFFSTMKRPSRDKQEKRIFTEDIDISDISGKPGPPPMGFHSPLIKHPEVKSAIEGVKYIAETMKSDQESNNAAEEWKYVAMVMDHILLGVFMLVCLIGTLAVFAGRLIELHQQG
T7 sequence (P09690 24-501): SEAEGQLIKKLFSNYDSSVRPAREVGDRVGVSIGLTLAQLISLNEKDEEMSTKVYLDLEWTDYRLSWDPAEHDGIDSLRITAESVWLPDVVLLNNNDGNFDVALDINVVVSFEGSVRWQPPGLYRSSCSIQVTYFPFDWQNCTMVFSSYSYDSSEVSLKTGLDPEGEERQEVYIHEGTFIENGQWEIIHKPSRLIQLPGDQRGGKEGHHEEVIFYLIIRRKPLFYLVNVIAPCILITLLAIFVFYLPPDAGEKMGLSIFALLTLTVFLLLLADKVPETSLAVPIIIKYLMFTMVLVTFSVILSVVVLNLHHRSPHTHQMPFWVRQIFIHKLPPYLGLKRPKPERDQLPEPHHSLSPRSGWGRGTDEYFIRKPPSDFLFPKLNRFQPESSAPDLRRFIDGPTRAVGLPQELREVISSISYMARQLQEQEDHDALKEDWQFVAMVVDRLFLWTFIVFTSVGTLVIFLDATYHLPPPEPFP
T7 sequence (P04760 23-519): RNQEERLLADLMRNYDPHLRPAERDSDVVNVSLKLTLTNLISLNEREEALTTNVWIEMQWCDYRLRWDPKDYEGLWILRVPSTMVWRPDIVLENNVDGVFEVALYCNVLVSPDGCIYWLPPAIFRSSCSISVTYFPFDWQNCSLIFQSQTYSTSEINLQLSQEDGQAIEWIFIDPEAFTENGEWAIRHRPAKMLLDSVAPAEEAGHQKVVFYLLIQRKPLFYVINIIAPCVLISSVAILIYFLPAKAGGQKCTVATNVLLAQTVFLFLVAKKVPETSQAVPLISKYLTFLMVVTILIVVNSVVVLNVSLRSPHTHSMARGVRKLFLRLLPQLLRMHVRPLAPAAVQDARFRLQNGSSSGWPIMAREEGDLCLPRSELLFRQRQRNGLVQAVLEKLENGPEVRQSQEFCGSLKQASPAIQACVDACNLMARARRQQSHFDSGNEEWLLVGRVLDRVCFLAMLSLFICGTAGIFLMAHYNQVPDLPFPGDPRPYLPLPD
T7 sequence (P02716 25-520): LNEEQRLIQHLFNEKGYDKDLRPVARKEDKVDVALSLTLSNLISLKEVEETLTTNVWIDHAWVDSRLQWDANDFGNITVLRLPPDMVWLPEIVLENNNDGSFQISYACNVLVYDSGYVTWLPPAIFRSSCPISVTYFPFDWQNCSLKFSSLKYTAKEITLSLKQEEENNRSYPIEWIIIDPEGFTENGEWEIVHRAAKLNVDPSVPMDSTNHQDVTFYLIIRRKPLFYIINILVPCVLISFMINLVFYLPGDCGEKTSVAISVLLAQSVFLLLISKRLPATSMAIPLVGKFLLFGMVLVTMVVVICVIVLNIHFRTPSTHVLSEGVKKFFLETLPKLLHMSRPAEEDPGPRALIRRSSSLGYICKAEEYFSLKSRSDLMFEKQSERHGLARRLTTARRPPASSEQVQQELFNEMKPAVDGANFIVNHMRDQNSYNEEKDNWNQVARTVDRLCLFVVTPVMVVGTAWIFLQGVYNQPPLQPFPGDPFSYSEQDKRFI
T6 sequence (P36544 23-502): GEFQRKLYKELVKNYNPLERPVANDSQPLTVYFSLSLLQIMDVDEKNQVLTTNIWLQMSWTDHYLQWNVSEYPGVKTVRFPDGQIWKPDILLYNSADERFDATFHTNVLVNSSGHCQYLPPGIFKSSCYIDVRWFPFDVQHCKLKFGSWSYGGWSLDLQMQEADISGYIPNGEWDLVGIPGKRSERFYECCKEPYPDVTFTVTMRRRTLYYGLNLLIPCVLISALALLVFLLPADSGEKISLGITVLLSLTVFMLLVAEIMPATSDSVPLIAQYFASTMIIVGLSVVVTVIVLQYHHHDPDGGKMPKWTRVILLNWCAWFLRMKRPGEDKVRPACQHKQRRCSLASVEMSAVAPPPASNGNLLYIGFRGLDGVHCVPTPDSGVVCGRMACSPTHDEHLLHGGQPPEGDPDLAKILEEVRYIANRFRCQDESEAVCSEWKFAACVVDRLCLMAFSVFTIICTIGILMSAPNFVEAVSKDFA
T2 sequence (P09483 31-630, stated change not applied): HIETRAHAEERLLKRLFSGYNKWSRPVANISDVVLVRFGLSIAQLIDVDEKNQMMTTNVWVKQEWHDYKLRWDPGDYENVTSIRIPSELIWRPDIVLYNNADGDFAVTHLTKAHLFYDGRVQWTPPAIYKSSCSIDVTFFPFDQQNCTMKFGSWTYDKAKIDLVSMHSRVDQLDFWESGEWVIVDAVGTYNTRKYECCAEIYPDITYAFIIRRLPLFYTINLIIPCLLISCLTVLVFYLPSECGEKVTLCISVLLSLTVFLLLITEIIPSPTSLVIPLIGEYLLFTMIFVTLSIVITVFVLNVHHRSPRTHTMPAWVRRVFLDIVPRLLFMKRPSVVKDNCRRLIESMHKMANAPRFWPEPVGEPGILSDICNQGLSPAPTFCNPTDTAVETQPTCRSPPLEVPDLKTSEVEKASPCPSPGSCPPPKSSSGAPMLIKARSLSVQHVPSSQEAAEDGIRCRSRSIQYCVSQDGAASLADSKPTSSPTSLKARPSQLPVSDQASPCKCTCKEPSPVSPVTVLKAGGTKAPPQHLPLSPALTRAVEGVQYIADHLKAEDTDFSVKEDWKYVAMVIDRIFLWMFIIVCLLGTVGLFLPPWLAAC
T2 sequence (P12390 25-500 V277F): as the sequence (P12390 25-500) above, with V253F counted along it
T3 sequence (P09483 31-630): as the sequence (P09483 31-630, stated change not applied) above
T3 sequence (P12392 21-495): as the sequence (P12392 21-495 F275V) above, with V255F counted along it
T1 sequence (P09483 31-630): as the sequence (P09483 31-630, stated change not applied) above
T1 sequence (P12390 25-500): as the sequence (P12390 25-500) above

CCCC(=O)N[C@@H](Cc1ccc(O)cc1)C(=O)NCCCNCCCCNCCCN [PhTX-343]
IC50 (α4β2 nAChR; Late, α4β2, VH −60 mV, late current (1 min)): 460 nM
IC50 (α4β2 nAChR; Late, α4β2, VH −80 mV, late current (1 min)): 310 nM
IC50 (α4β2 nAChR; Late, α4β2, VH −100 mV, late current (1 min)): 80 nM
IC50 (α4β2 nAChR; Peak, α4β2, VH −60 mV, peak current): 1900 nM
IC50 (α4β2 nAChR; Peak, α4β2, VH −80 mV, peak current): 930 nM
IC50 (α4β2 nAChR; Peak, α4β2, VH −100 mV, peak current): 140 nM
recovery of peak current after six ACh applications (36 min) (α4β2 nAChR; α4β2, 10 μM toxin, −80 mV): very limited or absent
decrease of peak current IC50 from −60 mV to VH −100 mV (α4β2 nAChR; α4β2, peak current): 14 fold
times less sensitive than the most sensitive subtype (α4β2 nAChR; α4β2 vs α3β4 (for PhTX-12: α1β1γδ along with α3β4), late current IC50, −80 mV): 26 times
reduction in late current IC50 as compared to α4β2 (α4β2(V253F) nAChR; α4β2(V253F) vs α4β2, late current, −80 mV): 2.6 fold
change in peak current IC50 as compared to α4β2 (α4β2(V253F) nAChR; α4β2(V253F) vs α4β2, peak current, −80 mV): no significant change
IC50 (α4β2(V253F) nAChR; [2]): 63 nM
IC50 (α4β2(V253F) nAChR; [3]): 620 nM
IC50 (α4β2(V253F) nAChR; [4]): 120 nM
IC50 (α4β2(V253F) nAChR; [5]): 750 nM
IC50 (α4β2(V253F) nAChR; [6]): 14 nM
IC50 (α4β2(V253F) nAChR; [7]): 110 nM
IC50 (α4β4 nAChR; Late, α4β4, VH −60 mV, late current (1 min)): 170 nM
IC50 (α4β4 nAChR; Late, α4β4, VH −80 mV, late current (1 min)): 65 nM
IC50 (α4β4 nAChR; Late, α4β4, VH −100 mV, late current (1 min)): 27 nM
IC50 (α4β4 nAChR; Peak, α4β4, VH −60 mV, peak current): 970 nM
IC50 (α4β4 nAChR; Peak, α4β4, VH −80 mV, peak current): 350 nM
IC50 (α4β4 nAChR; Peak, α4β4, VH −100 mV, peak current): 290 nM
recovery of peak current after six ACh applications (36 min) (α4β4 nAChR; α4β4, 10 μM toxin, −80 mV): very limited or absent
decrease of peak current IC50 from −60 mV to VH −100 mV (α4β4 nAChR; α4β4, peak current): 3.3 fold
times less sensitive than the most sensitive subtype (α4β4 nAChR; α4β4 vs α3β4 (for PhTX-12: α1β1γδ along with α3β4), late current IC50, −80 mV): 5 times
late current IC50 lower than that for α4β2 (α4β4 nAChR; α4β4 vs α4β2, late current): ~5 fold
peak current IC50 lower than that for α4β2 (α4β4 nAChR; α4β4 vs α4β2, peak current): roughly 3 fold
IC50 (α3β4 nAChR; Late, α3β4, VH −60 mV, late current (1 min), ACh 100 μM): 88 nM
IC50 (α3β4 nAChR; Late, α3β4, VH −80 mV, late current (1 min), ACh 100 μM): 12 nM
IC50 (α3β4 nAChR; Late, α3β4, VH −100 mV, late current (1 min), ACh 100 μM): 7.7 nM
IC50 (α3β4 nAChR; Peak, α3β4, VH −60 mV, peak current, ACh 100 μM): 290 nM
IC50 (α3β4 nAChR; Peak, α3β4, VH −80 mV, peak current, ACh 100 μM): 80 nM
IC50 (α3β4 nAChR; Peak, α3β4, VH −100 mV, peak current, ACh 100 μM): 77 nM
recovery of late current after six ACh applications (36 min) (α3β4 nAChR; [8]): 69 % of control
recovery of peak current after six ACh applications (36 min) (α3β4 nAChR; [8]): 82 % of control
decrease of peak current IC50 from −60 mV to VH −100 mV (α3β4 nAChR; α3β4, peak current): 3.8 fold
more potent than PhTX-12, peak current inhibition (α3β4 nAChR; α3β4, peak current, −80 mV): 33 fold
potency higher as compared to α3β2, peak current (α3β4 nAChR; α3β4 vs α3β2, peak current, −80 mV): 115 fold
increase in late current IC50 as compared to α3β4 (α3β4(F255V) nAChR; α3β4(F255V) vs α3β4, late current, −80 mV): did not see the expected increase
reduction in peak current IC50 as compared to α3β4 (α3β4(F255V) nAChR; α3β4(F255V) vs α3β4, peak current, −80 mV): 2.1 fold
IC50 (α3β4(F255V) nAChR; [2]): 74 nM
IC50 (α3β4(F255V) nAChR; [3]): 310 nM
IC50 (α3β4(F255V) nAChR; [4]): 12 nM
IC50 (α3β4(F255V) nAChR; [5]): 38 nM
IC50 (α3β4(F255V) nAChR; [6]): 5 nM
IC50 (α3β4(F255V) nAChR; [7]): 17 nM
IC50 (α7 nAChR; Late, α7, VH −60 mV, based on the area under the current trace (no stable late current)): 6560 nM
IC50 (α7 nAChR; Late, α7, VH −80 mV, based on the area under the current trace (no stable late current)): 5060 nM
IC50 (α7 nAChR; Late, α7, VH −100 mV, based on the area under the current trace (no stable late current)): 6770 nM
IC50 (α7 nAChR; Peak, α7, VH −60 mV, peak current): 6710 nM
IC50 (α7 nAChR; Peak, α7, VH −80 mV, peak current): 6480 nM
IC50 (α7 nAChR; Peak, α7, VH −100 mV, peak current): 8800 nM
voltage dependence of inhibition (α7 nAChR; homomeric α7, VH −60 to −100 mV): voltage-independent
surmountability of peak current inhibition by increasing ACh concentrations (α7 nAChR; α7, 30 μM toxin, peak current, −80 mV): surmountable
reversibility of inhibition (α7 nAChR; α7, 30 μM toxin, washing in frog Ringer solution, −80 mV): reversible after 6 min
times less sensitive than the most sensitive subtype (α7 nAChR; α7 vs α3β4 (for PhTX-12: α1β1γδ along with α3β4), late current IC50, −80 mV): 422 times
IC50 (α1β1γδ nAChR; Late, α1β1γδ, VH −60 mV, late current (1 min)): 18000 nM
IC50 (α1β1γδ nAChR; Late, α1β1γδ, VH −80 mV, late current (1 min)): 12000 nM and 11900 nM
IC50 (α1β1γδ nAChR; Late, α1β1γδ, VH −100 mV, late current (1 min)): 2440 nM
IC50 (α1β1γδ nAChR; Peak, α1β1γδ, VH −60 mV, peak current): 27100 nM
IC50 (α1β1γδ nAChR; Peak, α1β1γδ, VH −80 mV, peak current): 15100 nM
IC50 (α1β1γδ nAChR; Peak, α1β1γδ, VH −100 mV, peak current): 3260 nM
times less sensitive than the most sensitive subtype (α1β1γδ nAChR; α1β1γδ vs α3β4, late current IC50, −80 mV): 992 times and 1000 times
surmountability of peak current inhibition by increasing ACh concentrations (α1β1γδ nAChR; α1β1γδ, 10 μM toxin, peak current, −80 mV): surmountable
reversibility of inhibition (α1β1γδ nAChR; α1β1γδ, 100 μM toxin, washing in frog Ringer solution, −80 mV): reversible after 6 min
effect on membrane current when applied alone (nAChRs; 100 μM applied alone, VH = −80 mV, oocytes expressing nAChRs): did not produce any effect on membrane current
surmountability of late current inhibition by high ACh concentrations (nAChRs; all nAChRs including α7 and α1β1γδ, late current, −80 mV): not surmountable
voltage dependence of inhibition (nAChRs; heteromeric nAChRs, VH −60 to −100 mV): strongly voltage-dependent
reversibility of inhibition (nAChRs; heteromeric neuronal nAChRs, 10 μM toxin, −80 mV): irreversible
IC50 [1]: 100 nM
IC50 (α3β2 nAChR; Late, α3β2, VH −60 mV, late current (1 min)): 1590 nM
IC50 (α3β2 nAChR; Late, α3β2, VH −80 mV, late current (1 min)): 1370 nM
IC50 (α3β2 nAChR; Late, α3β2, VH −100 mV, late current (1 min)): 370 nM
IC50 (α3β2 nAChR; Peak, α3β2, VH −60 mV, peak current): 64500 nM
IC50 (α3β2 nAChR; Peak, α3β2, VH −80 mV, peak current): 9260 nM
IC50 (α3β2 nAChR; Peak, α3β2, VH −100 mV, peak current): 3590 nM
recovery of peak current after six ACh applications (36 min) (α3β2 nAChR; α3β2, 10 μM toxin, −80 mV): very limited or absent
decrease of peak current IC50 from −60 mV to VH −100 mV (α3β2 nAChR; α3β2, peak current): 18 fold
times less sensitive than the most sensitive subtype (α3β2 nAChR; α3β2 vs α3β4 (for PhTX-12: α1β1γδ along with α3β4), late current IC50, −80 mV): 114 times
